ChEMBL document CHEMBL1201862, “PubChem BioAssay data set” (2004)
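In this assay, cells in 96-well plates receive the compound at five concentrations for 48 hours. Endpoints are linearly interpolated between the surrounding concentrations. Abbreviation: GI50, concentration required for 50% inhibition of growth.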 Activity calls are given as the source filed them. Cut-off read from the data, not from the text of the source: active = GI50 up to about 1.1 µM and inactive = higher.

Assays:
Assay in all cases: NCI-60 cell line screen, 48 h
SNB-75 = tested on: SNB-75
UO-31 = tested on: UO-31
SN12C = tested on: SN12C
UACC-62 = tested on: UACC-62
NCI-H23 = tested on: NCI-H23
BT-549 = tested on: BT-549
SF-539 = tested on: SF-539
CCRF-CEM = tested on: CCRF-CEM
K562 = tested on: K562
LOX IMVI = tested on: LOX IMVI
SK-OV-3 = tested on: SK-OV-3
M14 = tested on: M14
Malme-3M = tested on: Malme-3M
COLO 205 = tested on: COLO 205
HCT-116 = tested on: HCT-116
HT-29 = tested on: HT-29
MDA-MB-231 = tested on: MDA-MB-231
UACC-257 = tested on: UACC-257
MOLT-4 = tested on: MOLT-4
SF-295 = tested on: SF-295
HL-60 = tested on: HL-60
NCI-H460 = tested on: NCI-H460
SK-MEL-28 = tested on: SK-MEL-28
KM12 = tested on: KM12
NCI/ADR-RES = tested on: NCI/ADR-RES
CAKI-1 = tested on: CAKI-1
PC-3 = tested on: PC-3
DU-145 = tested on: DU-145
SF-268 = tested on: SF-268
Hs-578T = tested on: Hs-578T
HCT-15 = tested on: HCT-15
HOP-62 = tested on: HOP-62
MCF7 = tested on: MCF7
OVCAR-3 = tested on: OVCAR-3
IGROV-1 = tested on: IGROV-1
SK-MEL-5 = tested on: SK-MEL-5
OVCAR-8 = tested on: OVCAR-8
OVCAR-4 = tested on: OVCAR-4
MDA-MB-435 = tested on: MDA-MB-435
A549 = tested on: A549
RPMI-8226 = tested on: RPMI-8226
TK-10 = tested on: TK-10
SNB-19 = tested on: SNB-19
T47D = tested on: T47D
MDA-N = tested on: MDA-N
ACHN = tested on: ACHN
EKVX = tested on: EKVX
U-251 = tested on: U-251
RXF 393 = tested on: RXF 393
SW-620 = tested on: SW-620
NCI-H522 = tested on: NCI-H522
NCI-H226 = tested on: NCI-H226
SR = tested on: SR
HOP-92 = tested on: HOP-92
OVCAR-5 = tested on: OVCAR-5
786-0 = tested on: 786-0
HCC 2998 = tested on: HCC 2998
SK-MEL-2 = tested on: SK-MEL-2

Measured: GI50

Nc1nc(SCCc2ccccc2)nc2nc3c(c(-c4ccccc4)c12)CCCC3
> 100 µM: HCT-15
active: SF-539 0.706 µM
inactive: SNB-75 34.9 µM | UO-31 > 100 µM | SN12C > 100 µM | UACC-62 > 100 µM | NCI-H23 > 100 µM | BT-549 42 µM | CCRF-CEM > 100 µM | K562 > 100 µM | LOX IMVI > 100 µM | SK-OV-3 99.1 µM | M14 > 100 µM | Malme-3M > 100 µM | COLO 205 > 100 µM | HCT-116 > 10 µM | HT-29 > 100 µM | MDA-MB-231 > 100 µM | UACC-257 > 100 µM | MOLT-4 > 100 µM | SF-295 > 100 µM | HL-60 > 100 µM | NCI-H460 > 100 µM | SK-MEL-28 > 100 µM | KM12 > 100 µM | NCI/ADR-RES > 100 µM | CAKI-1 > 100 µM | PC-3 > 100 µM | DU-145 > 100 µM | SF-268 > 100 µM | Hs-578T 8.65 µM | HOP-62 66.1 µM | MCF7 > 100 µM | OVCAR-3 > 100 µM | IGROV-1 > 100 µM | SK-MEL-5 > 10 µM | OVCAR-8 > 100 µM | OVCAR-4 40.9 µM | MDA-MB-435 > 100 µM | A549 > 100 µM | RPMI-8226 > 100 µM | TK-10 > 100 µM | SNB-19 > 100 µM | T47D > 100 µM | MDA-N > 100 µM | ACHN > 100 µM | EKVX > 100 µM | U-251 > 100 µM | RXF 393 24.3 µM | SW-620 > 100 µM

O=[N+]([O-])c1cc(-[n+]2cc([O-])on2)ccc1Cl
inactive: SNB-75 25.8 µM | UO-31 17.3 µM | SN12C 16.3 µM | UACC-62 27.8 µM | NCI-H23 13.7 µM | BT-549 19.9 µM | NCI-H522 17.8 µM | CCRF-CEM 23.6 µM | K562 42.4 µM | LOX IMVI 17.9 µM | SK-OV-3 33.5 µM | M14 15.5 µM | Malme-3M 13.6 µM | NCI-H226 83.8 µM | COLO 205 27.7 µM | SR 29.9 µM | HCT-116 16.1 µM | HT-29 15.1 µM | MDA-MB-231 17.4 µM | UACC-257 13.8 µM | SF-295 23.7 µM | HL-60 35 µM | NCI-H460 34.2 µM | SK-MEL-28 16.1 µM | KM12 22 µM | NCI/ADR-RES 18 µM | CAKI-1 2.44 µM | HOP-92 19.2 µM | PC-3 > 100 µM | DU-145 16.9 µM | SF-268 22.2 µM | Hs-578T 13.6 µM | HOP-62 15.3 µM | MCF7 19.4 µM | OVCAR-3 37.3 µM | IGROV-1 24.3 µM | SK-MEL-5 10.2 µM | OVCAR-5 18.1 µM | OVCAR-8 20.6 µM | 786-0 21.3 µM | OVCAR-4 14 µM | MDA-MB-435 27.6 µM | A549 31 µM | HCC 2998 18.1 µM | RPMI-8226 24.3 µM | TK-10 18.6 µM | SNB-19 14.2 µM | T47D 16.4 µM | MDA-N 14.9 µM | SK-MEL-2 21.5 µM | ACHN 16 µM | EKVX 19 µM | U-251 17 µM | RXF 393 14.8 µM | SW-620 13.4 µM
20.7 µM: HCT-15
